Laboratory results published in the supplement of paper PMC10307832.

What was measured:
Assay in all cases: relative viability (nuclei count vs DMSO), 5 days (fraction); higher = more cells survive
Elesclomol + Palbociclib = compound: CN(NC(=O)CC(=O)NN(C)C(=S)c1ccccc1)C(=S)c1ccccc1 [Elesclomol] + CC(=O)c1c(C)c2cnc(Nc3ccc(N4CCNCC4)cn3)nc2n(C2CCCC2)c1=O [Palbociclib] (partner 0.5 µM)
Procedure, shortened: (§1)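 Relative viability equals treated-well nuclei counts divided by vehicle-well nuclei counts. Counts came from 4× images of lung cancer cell lines grown in 1536-well plates for 5 days after pin-tool dosing on the day after seeding. Dosing used one drug alone or a fixed anchor-drug dose plus five library-drug doses (not always all listed) in √10 steps, and values are medians of duplicate plates.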

Elesclomol + Bortezomib = compound: CN(NC(=O)CC(=O)NN(C)C(=S)c1ccccc1)C(=S)c1ccccc1 [Elesclomol] + CC(C)C[C@H](NC(=O)[C@H](Cc1ccccc1)NC(=O)c1cnccn1)B(O)O [Bortezomib] (partner 0.002 µM)
Procedure, shortened: as §1

Elesclomol + Foretinib = compound: CN(NC(=O)CC(=O)NN(C)C(=S)c1ccccc1)C(=S)c1ccccc1 [Elesclomol] + COc1cc2c(Oc3ccc(NC(=O)C4(C(=O)Nc5ccc(F)cc5)CC4)cc3F)ccnc2cc1OCCCN1CCOCC1 [Foretinib] (partner 0.25 µM)
Procedure, shortened: as §1

Elesclomol + Pemetrexed = compound: CN(NC(=O)CC(=O)NN(C)C(=S)c1ccccc1)C(=S)c1ccccc1 [Elesclomol] + Nc1nc2[nH]cc(CCc3ccc(C(=O)N[C@@H](CCC(=O)O)C(=O)O)cc3)c2c(=O)[nH]1 [Pemetrexed] (partner 0.2 µM)
Procedure, shortened: as §1

Elesclomol + Decitabine = compound: CN(NC(=O)CC(=O)NN(C)C(=S)c1ccccc1)C(=S)c1ccccc1 [Elesclomol] + Nc1ncn([C@H]2C[C@H](O)[C@@H](CO)O2)c(=O)n1 [Decitabine] (partner 2 µM)
Procedure, shortened: as §1

Cell Line | relative viability (Elesclomol + Palbociclib; first compound 0.003162 µM) | relative viability (Elesclomol + Palbociclib; first compound 0.01 µM) | relative viability (Elesclomol + Palbociclib; first compound 0.03162 µM) | relative viability (Elesclomol + Palbociclib; first compound 0.1 µM) | relative viability (Elesclomol + Bortezomib; first compound 0.003162 µM) | relative viability (Elesclomol + Bortezomib; first compound 0.01 µM) | relative viability (Elesclomol + Bortezomib; first compound 0.03162 µM) | relative viability (Elesclomol + Bortezomib; first compound 0.1 µM) | relative viability (Elesclomol + Foretinib; first compound 0.003162 µM) | relative viability (Elesclomol + Foretinib; first compound 0.01 µM) | relative viability (Elesclomol + Foretinib; first compound 0.03162 µM) | relative viability (Elesclomol + Foretinib; first compound 0.1 µM) | relative viability (Elesclomol + Pemetrexed; first compound 0.003162 µM) | relative viability (Elesclomol + Pemetrexed; first compound 0.01 µM) | relative viability (Elesclomol + Pemetrexed; first compound 0.03162 µM) | relative viability (Elesclomol + Pemetrexed; first compound 0.1 µM) | relative viability (Elesclomol + Decitabine; first compound 0.003162 µM) | relative viability (Elesclomol + Decitabine; first compound 0.01 µM) | relative viability (Elesclomol + Decitabine; first compound 0.03162 µM) | relative viability (Elesclomol + Decitabine; first compound 0.1 µM)
201T | 0.349 | 0.358 | 0.354 | 0.372 | 1.09 | 1.07 | 1.08 | 1.05 | 0.945 | 0.671 | 0.265 | 0.265 | 0.361 | 0.369 | 0.309 | 0.394 | 0.869 | 0.844 | 0.818 | 0.854
A549 | – | – | – | – | – | – | – | – | 0.886 | 0.504 | 0.0597 | 0.0242 | – | – | – | – | 0.293 | 0.22 | 0.261 | 0.133
A-427 | 0.498 | 0.455 | 0.211 | 0.178 | 0.956 | 0.908 | 0.99 | 0.483 | 0.981 | 0.956 | 0.917 | 0.157 | 0.937 | 0.707 | 0.201 | 0.186 | 0.601 | 0.453 | 0.285 | 0.194
ABC-1 | 0.327 | 0.265 | 0.288 | 0.258 | 0.133 | 0.23 | 0.25 | 0.228 | 0.255 | 0.221 | 0.259 | 0.215 | – | – | – | – | 0.409 | 0.345 | 0.318 | 0.279
BEN | 0.46 | 0.388 | 0.39 | 0.304 | 0.698 | 0.57 | 0.265 | 0.25 | 0.493 | 0.467 | 0.296 | 0.265 | 0.888 | 0.68 | 0.408 | 0.319 | 0.677 | 0.483 | 0.419 | 0.333
CAL-12T | 0.435 | 0.118 | 0.0519 | 0.0654 | 1.01 | 0.555 | 0.257 | 0.119 | 1.04 | 1.16 | 0.263 | 0.144 | 1.03 | 0.576 | 0.119 | 0.0739 | – | – | – | –
COR-L23 | 0.276 | 0.17 | 0.153 | 0.115 | 0.809 | 0.625 | 0.579 | 0.252 | 0.977 | 0.667 | 0.418 | 0.198 | 0.212 | 0.206 | 0.19 | 0.155 | 0.439 | 0.347 | 0.282 | 0.163
COR-L 105 | 0.397 | 0.358 | 0.317 | 0.291 | 0.751 | 0.577 | 0.347 | 0.214 | 0.985 | 0.698 | 0.44 | 0.176 | 1.13 | 1.17 | 0.392 | 0.27 | 0.666 | 0.465 | 0.337 | 0.303
ChaGo-K-1 | 0.875 | 0.882 | 0.568 | 0.154 | 0.794 | 0.402 | 0.273 | 0.275 | 0.838 | 0.95 | 0.34 | 0.186 | 0.268 | 0.255 | 0.204 | 0.147 | 0.531 | 0.473 | 0.415 | 0.163
